Common to all, as to type: biochemical
One test concerns the target T1, human H-PGDS (Homo sapiens, UniProt O60760).
T1 construct: purchased Cayman Chemical 10006593
The test can be described thus: H-PGDS inhibitory activity (Prostaglandin D Synthase Inhibitor Screening Assay Kit). Conditions: at a concentration of 1 μmol/L; read-out: H-PGDS inhibitory rate. The method, then:
The H-PGDS inhibitory activity of Compound (I) was calculated according to the following protocol attached to Prostaglandin D Synthase Inhibitor Screening Assay Kit (Cat. No. 10006595, Cayman Chemical, Ann Arbor, Mich., USA).
(§1) First, to a 96-well round-bottom plate (Cat. No. 3882-096, Asahi Techno Glass, Chiba), 60 μL/well of an enzyme assay buffer (0.1 mol/L Tris-HCl, pH 8.0), 10 μL/well of a human H-PGDS [Cat. No. 10006593 (human), Cayman Chemical, Ann Arbor, Mich., USA] at a final concentration of 0.125 μg/mL, 10 μL/well of reduced glutathione at a final concentration of 1 mmol/L, and 10 μL/well of Compound (I) diluted with the enzyme assay buffer were added and lightly mixed. The plate was allowed to stand at room temperature for 10 minutes, and then 10 μL/well of prostaglandin H2(PGH2) (Cat. No. 17020, Cayman Chemical) at a final concentration of 50 μmol/L was added thereto to start enzyme reaction. The reaction was allowed to proceed with mixing by a plate mixer for 1 minute. After the enzyme reaction, 10 μL/well of a 4 mg/mL FeCl2-HCl solution prepared by dissolving FeCl2 in 1 mol/L hydrochloric acid was added to stop the reaction and reduce PGH2 simultaneously. The enzyme reaction solution (100 μL/well) was transferred to a 96-well UV-Star half area plate (Cat. No. 675801, Greiner, Frickenhausen, Germany), and measured for absorbance at 232 nm using a microplate reader Power Wave (BioTek Instrument Inc., Winooski, Vt., USA).
The H-PGDS inhibitory activity (inhibitory rate) of Compound (I) was calculated by the following formula.
The H-PGDS inhibitory activity of Compound 133 was calculated according to the following protocol attached to Prostaglandin D Synthase Inhibitor Screening Assay Kit (Cat. No. 10006595, Cayman Chemical, Ann Arbor, Mich., USA).
as §1, with “133” for “(I)”
The H-PGDS inhibitory activity (inhibitory rate) of Compound 133 was calculated according to the method in Test Example 1.

The target in the next test is cyclooxygenase-1 (COX-1) (Homo sapiens, UniProt P23219). The test can be described thus: Inhibition of COX-1 enzyme activity. Conditions: at a concentration of 10 μmol/L; read-out: inhibitory rate, COX-1.
For test [1], the target named is T2, human lipocalin-prostaglandin D2 synthase (human lipocalin-PGDS) (Homo sapiens, UniProt P41222).
T2 sequence (P41222 23-190): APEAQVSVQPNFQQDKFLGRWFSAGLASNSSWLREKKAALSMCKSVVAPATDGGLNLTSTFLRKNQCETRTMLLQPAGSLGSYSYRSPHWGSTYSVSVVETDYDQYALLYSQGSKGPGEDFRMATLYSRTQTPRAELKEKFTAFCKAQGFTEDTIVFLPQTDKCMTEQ
Description: Inhibition of human lipocalin-PGDS enzyme activity. Conditions: at a concentration of 10 μmol/L; read-out: inhibitory rate, human lipocalin-PGDS.

From patent publication US20120196854A1, “PHARMACEUTICAL COMPOSITION COMPRISING AROMATIC HETEROCYCLIC COMPOUND” (Kyowa Hakko Kirin Co., Ltd., priority 2009, published 2012) come the findings set out here.

T1 sequence (O60760 whole entry): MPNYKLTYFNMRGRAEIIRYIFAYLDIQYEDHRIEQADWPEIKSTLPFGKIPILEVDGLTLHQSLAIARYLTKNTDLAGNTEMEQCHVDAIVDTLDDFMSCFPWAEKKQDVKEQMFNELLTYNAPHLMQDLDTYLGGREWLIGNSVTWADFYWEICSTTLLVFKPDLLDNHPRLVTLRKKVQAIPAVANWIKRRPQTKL
Chain of cyclooxygenase-1 (COX-1) (P23219 24-599, species assumed): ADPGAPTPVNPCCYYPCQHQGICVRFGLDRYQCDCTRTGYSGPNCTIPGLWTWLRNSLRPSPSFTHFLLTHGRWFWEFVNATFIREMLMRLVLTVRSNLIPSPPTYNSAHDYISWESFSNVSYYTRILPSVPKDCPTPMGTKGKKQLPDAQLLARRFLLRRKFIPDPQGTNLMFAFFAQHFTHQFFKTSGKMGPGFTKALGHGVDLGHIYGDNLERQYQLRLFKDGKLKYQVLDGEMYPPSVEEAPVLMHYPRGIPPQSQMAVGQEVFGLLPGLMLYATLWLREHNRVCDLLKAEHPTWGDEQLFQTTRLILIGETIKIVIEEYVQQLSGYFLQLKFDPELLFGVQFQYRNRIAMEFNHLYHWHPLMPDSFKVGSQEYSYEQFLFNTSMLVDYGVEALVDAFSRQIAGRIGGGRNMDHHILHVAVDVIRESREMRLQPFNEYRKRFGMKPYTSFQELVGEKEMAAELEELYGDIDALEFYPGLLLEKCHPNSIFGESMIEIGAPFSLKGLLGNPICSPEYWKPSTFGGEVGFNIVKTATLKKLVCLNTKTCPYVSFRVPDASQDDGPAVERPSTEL

In the case of `O=C(O)c1cc(-c2ccco2)nc2ccc3nn(-c4ccccc4)nc3c12` [Compound 133, 7-(furan-2-yl)-2-phenyl-2H-[1,2,3]triazolo[4,5-f]quinoline-9-carboxylic acid], the inhibition at 1 µM on human H-PGDS was found to be 73%. Besides, the inhibition at 10 µM (on cyclooxygenase-1 (COX-1); in test [1]) was no more than 20% each time.
